From ChEMBL document CHEMBL1772985, “N-(3-fluoro-4-(4-(2-methoxy or 2,3-dichlorophenyl)piperazine-1-yl)butyl)arylcarboxamides as selective dopamine D3 receptor ligands: critical role of the carboxamide linker for D3 receptor selectivity” (J Med Chem, 2011)

Assays:
[1] = target: 5-hydroxytryptamine receptor 2A (Homo sapiens, UniProt P28223)
[2] = target: T1, D(3) dopamine receptor (Homo sapiens, UniProt P35462); assay: Displacement of [125I]-IABN from human dopamine D3 receptor expressed in HEK293 cells after 60 mins by gamma counting; format: cell-based
T1 sequence (P35462 whole entry): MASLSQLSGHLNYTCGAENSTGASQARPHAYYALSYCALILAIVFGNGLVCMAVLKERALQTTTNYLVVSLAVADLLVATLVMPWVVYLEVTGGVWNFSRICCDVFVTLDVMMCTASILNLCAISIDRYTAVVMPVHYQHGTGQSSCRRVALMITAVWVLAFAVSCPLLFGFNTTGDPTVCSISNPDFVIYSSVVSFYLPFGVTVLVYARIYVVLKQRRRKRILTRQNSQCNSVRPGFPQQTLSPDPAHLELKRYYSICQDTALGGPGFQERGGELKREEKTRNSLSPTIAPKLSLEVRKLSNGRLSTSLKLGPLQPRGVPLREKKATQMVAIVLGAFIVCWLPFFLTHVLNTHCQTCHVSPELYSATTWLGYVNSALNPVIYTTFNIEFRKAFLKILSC

[3] = target: T2, 5-hydroxytryptamine receptor 1A (Homo sapiens) (UniProt P08908); assay: Agonist activity at 5HT1A receptor assessed as stimulation of [35S]GTPgammaS binding relative to control; format: functional; design: concentration or dose not given beside the values
T2 sequence (whole entry): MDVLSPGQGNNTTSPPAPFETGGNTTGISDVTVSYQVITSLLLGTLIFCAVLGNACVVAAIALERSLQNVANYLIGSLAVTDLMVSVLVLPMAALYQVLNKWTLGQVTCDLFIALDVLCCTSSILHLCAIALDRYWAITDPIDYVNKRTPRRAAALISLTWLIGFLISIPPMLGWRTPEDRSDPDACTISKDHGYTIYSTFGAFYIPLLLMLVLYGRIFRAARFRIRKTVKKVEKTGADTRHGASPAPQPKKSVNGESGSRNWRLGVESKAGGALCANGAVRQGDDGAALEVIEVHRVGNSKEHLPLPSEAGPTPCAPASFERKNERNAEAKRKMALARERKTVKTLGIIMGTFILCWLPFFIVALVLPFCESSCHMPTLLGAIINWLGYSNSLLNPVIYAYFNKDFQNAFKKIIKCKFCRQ

[4] = target: T3, D(4) dopamine receptor (Homo sapiens, UniProt P21917); assay: Displacement of [125I]-IABN from human dopamine D4 receptor expressed in HEK293 cells after 60 mins by gamma counting; format: cell-based
T3 sequence (P21917 whole entry): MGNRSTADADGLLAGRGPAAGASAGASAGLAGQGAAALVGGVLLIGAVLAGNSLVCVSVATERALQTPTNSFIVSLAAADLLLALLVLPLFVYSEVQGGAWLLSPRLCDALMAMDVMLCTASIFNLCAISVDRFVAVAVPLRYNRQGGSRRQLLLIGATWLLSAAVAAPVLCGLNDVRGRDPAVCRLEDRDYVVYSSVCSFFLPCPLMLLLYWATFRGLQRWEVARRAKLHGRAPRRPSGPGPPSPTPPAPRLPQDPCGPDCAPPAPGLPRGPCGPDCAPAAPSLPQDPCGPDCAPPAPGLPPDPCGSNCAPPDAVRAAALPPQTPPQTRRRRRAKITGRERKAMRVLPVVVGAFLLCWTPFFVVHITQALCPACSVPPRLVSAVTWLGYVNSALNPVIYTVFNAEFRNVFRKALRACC

[5] = target: D(2) dopamine receptor (Homo sapiens, UniProt P14416); assay: Displacement of [125I]-IABN from human dopamine D2L receptor expressed in HEK293 cells after 60 mins by gamma counting; format: cell-based
Chain of D(2) dopamine receptor (P14416 whole entry): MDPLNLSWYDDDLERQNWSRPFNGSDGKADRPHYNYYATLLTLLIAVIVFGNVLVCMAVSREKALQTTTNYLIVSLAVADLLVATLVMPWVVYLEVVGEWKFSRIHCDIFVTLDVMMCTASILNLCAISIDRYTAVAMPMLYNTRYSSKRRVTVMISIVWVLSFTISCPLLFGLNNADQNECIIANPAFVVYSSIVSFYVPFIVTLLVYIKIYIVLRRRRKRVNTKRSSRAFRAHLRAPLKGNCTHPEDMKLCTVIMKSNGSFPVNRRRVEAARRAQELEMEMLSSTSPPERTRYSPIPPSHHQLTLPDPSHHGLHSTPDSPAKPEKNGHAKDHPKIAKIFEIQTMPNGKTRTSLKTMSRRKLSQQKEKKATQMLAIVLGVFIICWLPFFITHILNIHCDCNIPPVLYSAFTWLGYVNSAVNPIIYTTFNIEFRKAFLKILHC

[6] = target: T4, 5-hydroxytryptamine receptor 1A (Homo sapiens, UniProt P08908); assay: Agonist activity at 5HT1A receptor assessed as stimulation of [35S]GTPgammaS binding; format: functional
T4 sequence (P08908 whole entry): T2 sequence (whole entry)

[7] = species on record: Homo sapiens; assay: Selectivity ratio Ki for human dopamine D2L receptor to Ki for human dopamine D3 receptor
[8] = target: T4, 5-hydroxytryptamine receptor 1A; assay: Displacement of [3H]8-OH-DPAT from 5HT1A receptor
[9] = target: T1, D(3) dopamine receptor; assay: Antagonist activity at human dopamine D3 receptor expressed in CHOp cells assessed as inhibition of quinpirole-induced mitogenesis; format: functional, cell-based
[10] = target: T1, D(3) dopamine receptor; assay: Antagonist activity at human dopamine D3 receptor expressed in CHO-K1 cells assessed as inhibition of dopamine-induced recruitment of beta-arrestin-2 at 10 uM after 90 mins by beta-galactosidase assay; format: functional, cell-based
[11] = target: T1, D(3) dopamine receptor; assay: Antagonist activity at human dopamine D3 receptor expressed in CHO-K1 cells assessed as inhibition of dopamine-induced recruitment of beta-arrestin-2 after 90 mins by beta-galactosidase assay; format: functional, cell-based
[12] = Binding affinity to human dopamine D2/D3 receptor chimera B expressed in HEK293 cells; format: cell-based
[13] = Binding affinity to human dopamine D2/D3 receptor chimera C expressed in HEK293 cells; format: cell-based
[14] = Binding affinity to human dopamine D2/E2 loop of D3 receptor expressed in HEK293 cells; format: cell-based
[15] = target: T2, 5-hydroxytryptamine receptor 1A (Homo sapiens); assay: Displacement of [3H]8-OH-DPAT from 5HT1A receptor at 10 uM

Chain of 5-hydroxytryptamine receptor 2A (P28223 whole entry): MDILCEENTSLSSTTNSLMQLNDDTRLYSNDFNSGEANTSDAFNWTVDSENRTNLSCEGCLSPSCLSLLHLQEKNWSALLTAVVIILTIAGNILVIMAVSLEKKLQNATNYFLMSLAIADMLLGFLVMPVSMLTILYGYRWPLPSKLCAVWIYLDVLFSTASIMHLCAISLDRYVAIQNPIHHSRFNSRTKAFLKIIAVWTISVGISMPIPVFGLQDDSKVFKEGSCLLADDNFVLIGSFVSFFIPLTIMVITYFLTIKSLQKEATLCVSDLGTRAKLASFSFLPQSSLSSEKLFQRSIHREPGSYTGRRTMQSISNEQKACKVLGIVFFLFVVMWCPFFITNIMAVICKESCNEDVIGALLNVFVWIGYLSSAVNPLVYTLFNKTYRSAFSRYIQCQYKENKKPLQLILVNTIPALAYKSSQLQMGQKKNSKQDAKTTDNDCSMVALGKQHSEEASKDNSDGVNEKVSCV

| Structure (SMILES) | Ki [1] | Ki [2] | Activity [3] | Ki [4] | Ki [5] | EC50 [6] | Ratio Ki [7] | Ki [8] | IC50 [9] | inhibition [10] | IC50 [11] | Kd [12] | Kd [13] | Kd [14] | inhibition [15] |
| --- | --- | --- | --- | --- | --- | --- | --- | --- | --- | --- | --- | --- | --- | --- | --- |
| COc1ccccc1N1CCN(CC(F)CCNC(=O)c2cc3ccccc3[nH]2)CC1 (configuration not stated) | 3240 nM | 9.5 nM | 83% | 1490 nM | 421 nM | 1430 nM | 44 | 101 nM | 820 nM | < 50% | – | – | – | – | – |
| COc1ccccc1N1CCN(CC(F)CCNC(=O)c2ccc(-c3ccccn3)cc2)CC1 (configuration not stated) | 2060 nM | 20.5 nM | 73% | – | 390 nM | 71.6 nM | 19 | 49 nM | 390 nM | – | 699 nM | – | – | – | – |
| COc1ccccc1N1CCN(CC(F)CCNC(=O)c2cc3ccccc3o2)CC1 (configuration not stated) | 4800 nM | 28.6 nM | 60% | – | 329 nM | 134 nM | 11 | 37.9 nM | 440 nM | – | – | – | – | – | – |
| O=C(NCCC(F)CN1CCN(c2cccc(Cl)c2Cl)CC1)c1cc2ccccc2[nH]1 (configuration not stated) | 212 nM | 4 nM | 88% | 3360 nM | 526 nM | 2140 nM | 131 | 223 nM | – | – | 1220 nM | – | – | – | – |
| O=C(NC/C=C/CN1CCN(c2cccc(Cl)c2Cl)CC1)c1ccc(-c2ccccn2)cc1 | – | – | – | – | – | – | 133 | – | – | – | – | – | – | – | – |
| O=C(NCCC(F)CN1CCN(c2cccc(Cl)c2Cl)CC1)c1ccc2c(c1)Cc1ccccc1-2 (configuration not stated) | 4800 nM | 2.6 nM | – | – | 4260 nM | – | 1640 | 6000 nM | 800 nM | < 50% | – | – | – | – | – |
| COc1ccc2[nH]c(C(=O)NCCC(F)CN3CCN(c4ccccc4OC)CC3)cc2c1 (configuration not stated) | 3540 nM | 4.6 nM | – | – | 302 nM | – | 66 | 1170 nM | 1140 nM | – | 2990 nM | – | – | – | – |
| COc1ccc2oc(C(=O)NCCC(F)CN3CCN(c4cccc(Cl)c4Cl)CC3)cc2c1 (configuration not stated) | 274 nM | 8 nM | – | – | 279 nM | – | 35 | 501 nM | 1430 nM | < 50% | – | – | – | – | – |
| COc1ccc2oc(C(=O)NCCC(F)CN3CCN(c4ccccc4OC)CC3)cc2c1 (configuration not stated) | 3000 nM | 13.9 nM | 76% | – | 274 nM | 600 nM | 20 | 73 nM | 780 nM | – | 1240 nM | – | – | – | – |
| O=C(NCCC(F)CN1CCN(c2cccc(Cl)c2Cl)CC1)c1cc2ccccc2o1 (configuration not stated) | – | – | – | – | – | – | – | – | – | – | – | 0.02 nM | 0.02 nM | 0.08 nM | – |
| CCCN(CCCCN1CCN(c2ccccc2OC)CC1)Cc1ccc2c(c1)Cc1ccccc1-2 | – | 71.5 nM | – | – | 196 nM | – | 3 | – | – | – | – | – | – | – | – |
| CCCN(CCCCN1CCN(c2cccc(Cl)c2Cl)CC1)Cc1cc2ccccc2s1 | – | – | – | – | 162 nM | – | 2 | – | – | – | – | – | – | – | – |
| OC(CCNCc1ccc2c(c1)Cc1ccccc1-2)CN1CCN(c2cccc(Cl)c2Cl)CC1 (configuration not stated) | – | 134 nM | – | – | 2090 nM | – | 16 | – | – | – | – | – | – | – | – |
| CCCN(CCCCN1CCN(c2ccccc2OC)CC1)Cc1cc2ccccc2s1 | – | 67.9 nM | – | – | 69.9 nM | – | 1 | – | – | – | – | – | – | – | – |
| O=C(NCCC(F)CN1CCN(c2cccc(Cl)c2Cl)CC1)c1ccc2ccccc2c1 (configuration not stated) | 1910 nM | 6.1 nM | – | – | 195 nM | – | 32 | – | 255 nM | < 50% | – | – | – | – | < 50% |
| CN(CCC(O)CN1CCN(c2cccc(Cl)c2Cl)CC1)Cc1ccc2c(c1)Cc1ccccc1-2 (configuration not stated) | – | 162 nM | – | – | 869 nM | – | 5 | – | – | – | – | – | – | – | – |
| CCCN(CCCCN1CCN(c2cccc(Cl)c2Cl)CC1)Cc1ccc2c(c1)Cc1ccccc1-2 | – | 129 nM | – | – | 269 nM | – | 2 | – | – | – | – | – | – | – | – |
| COc1ccc2[nH]c(C(=O)NCCC(F)CN3CCN(c4cccc(Cl)c4Cl)CC3)cc2c1 (configuration not stated) | 272 nM | 1.5 nM | – | – | 230 nM | – | 153 | – | 320 nM | < 50% | – | – | – | – | < 50% |
| CCCN(CCCCN1CCN(c2ccccc2OC)CC1)Cc1ccc2ccccc2c1 | – | 80.8 nM | – | – | 119 nM | – | 1.5 | – | – | – | – | – | – | – | – |
| COc1ccccc1N1CCN(CC(F)CCNC(=O)c2ccc3c(c2)Cc2ccccc2-3)CC1 (configuration not stated) | > 10000 nM | 10.1 nM | – | 3180 nM | 2890 nM | – | 286 | 299 nM | 214 nM | < 50% | – | – | – | – | – |
| CN(CCC(F)CN1CCN(c2cccc(Cl)c2Cl)CC1)Cc1ccc2c(c1)Cc1ccccc1-2 (configuration not stated) | 2580 nM | 393 nM | – | – | 2060 nM | – | 5 | – | 918 nM | – | – | – | – | – | < 50% |
| COc1ccccc1N1CCN(CC(F)CCNC(=O)c2cc3ccccc3s2)CC1 (configuration not stated) | 3030 nM | 3.8 nM | 57% | – | 241 nM | 440 nM | 63 | 139 nM | 83 nM | – | 3210 nM | – | – | – | – |
| CCCN(CCCCN1CCN(c2cccc(Cl)c2Cl)CC1)Cc1ccc2ccccc2c1 | – | 104 nM | – | – | 313 nM | – | 3 | – | – | – | – | – | – | – | – |
| FC(CCNCc1ccc2c(c1)Cc1ccccc1-2)CN1CCN(c2cccc(Cl)c2Cl)CC1 (configuration not stated) | – | 467 nM | – | – | 5270 nM | – | 11 | – | – | – | – | – | – | – | – |
| O=C(NCCC(F)CN1CCN(c2cccc(Cl)c2Cl)CC1)c1cc2ccccc2s1 (configuration not stated) | 3290 nM | 2.9 nM | – | – | 472 nM | – | 163 | 2140 nM | 17 nM | – | 3770 nM | – | – | – | – |
| O=C(NCCC(F)CN1CCN(c2cccc(Cl)c2Cl)CC1)c1ccc(-c2ccccn2)cc1 (configuration not stated) | 98 nM | 6.2 nM | – | 3090 nM | 378 nM | 1080 nM | – | 159 nM | 256 nM | – | – | – | – | – | – |
